# Measured values taken from patent publication US6121287A, “Quinoline derivatives” (Active Biotech AB, priority 1999, dated 2000).
# Where two headings read alike, the source gives them in different places.
# Columns and labels:
# [1] = test system: beagle dogs; conditions: different breeds of beagle dogs; cited from earlier work
# [2] = test system: multiple sclerosis; conditions: cited from earlier work
# [3] = test system: cell-mediated immunity; conditions: cited from earlier work
# [4] = test system: foetuses of pregnant female rats; conditions: rat; background statement; cited from earlier work
# [5] = test system: acute experimental autoimmune encephalomyelitis (aEAE); experiment: inhibition of acute experimental autoimmune encephalomyelitis (aEAE) in mice; assay type: in vivo, mice (STUN female); conditions: for % aEAE Inhibition: percent inhibition of clinical scores vs saline treated controls
# [6] = test system: foetuses of pregnant female rats; experiment: Teratogenic Effects in the Rat; assay type: in vivo; conditions: 6 mg/kg/day (dose given for the N-methyl-N-phenyl compound), subcutaneous, day 8 to 14 of pregnancy
# From the text: Teratogenic Effects in the Rat
# The compounds were administrated subcutaneously to female rats during pregnancy, i.e., day 8 to 14 of pregnancy. The rats were caesarean sectioned and necropsied on day 20 after fertilization. The foetuses were examined for external and internal abnormalities.
Compound,% aEAE Inhibition ([5]; 0.04 mg/kg p.o.) [%],% aEAE Inhibition ([5]; 0.2 mg/kg p.o.) [%],teratogenic effect [6],% aEAE Inhibition ([5]; 1 mg/kg p.o.) [%],further results
"CN(C(=O)c1c(O)c2ccccc2n(C)c1=O)c1ccccc1 [Roquinimex, roquinimex]",–,–,–,–,"Beagle Pain Syndrome (BPS) induction [1]: induce the Beagle Pain Syndrome (BPS); clinical efficacy in conditions associated with MS ([2]; clinical trials comparing roquinimex to placebo): hold promise in the treatment of conditions associated with MS; dose-limiting side effects in man ([2]; man): induces dose-limiting side effects in man, e.g., a flu-like syndrome; immunomodulatory activities [3]: multiple immunomodulatory activities not accompanied with general immunosuppression; teratogenic effect [4]: teratogenic in the rat; inhibition of aEAE (treatment control) ([5]; at ≥5 mg/kg, mice): more than 50%"
"CCN(C(=O)c1c(O)c2cc(SC)ccc2n(C)c1=O)c1ccccc1 [Compound C, N-ethyl-N-phenyl-1,2-dihydro-4-hydroxy-6-thiomethyl-1-methyl-2-oxo-quinoline3-carboxamide]",0,23,–,–,–
"CSc1cccc2c1c(O)c(C(=O)N(C)c1ccccc1)c(=O)n2C [N-methyl-N-phenyl-1,2-dihydro-4-hydroxy-5-thiomethyl-1-methyl-2-oxo-quinoline-3-carboxamide]",–,–,teratogenic,–,–
"CCN(C(=O)c1c(O)c2c(SC)cccc2n(C)c1=O)c1ccccc1 [Compound A, N-ethyl-N-phenyl-1,2-dihydro-4-hydroxy-5-thiomethyl-1-methyl-2-oxo-quinoline-3-carboxamide]",28,49,non-teratogenic,–,–
"CSc1ccc2c(c1)c(O)c(C(=O)N(C)c1ccc(F)cc1F)c(=O)n2C [Compound D, N-methyl-N-(2,4difluoro-phenyl)-l,2-dihydro-4-hydroxy-6-thiomethyl-1-methyl-2-oxo-quinoline-3-carboxamide]",–,0,–,66,–
"CSc1cccc2c1c(O)c(C(=O)N(C)c1ccc(F)cc1F)c(=O)n2C [Compound B, N-methyl-N-(2,4-difluoro-phenyl)-1,2-dihydro-4-hydroxy-5-thiomethyl-1-methyl-2-oxo-quinoline-3-carboxamide]",–,67,non-teratogenic,97,–
